# Experiments:
# [1] = biological target: Rho-associated protein kinase 1 (Homo sapiens, UniProt Q13464); test: Inhibition of ROCK1
# [2] = biological target: Receptor-type tyrosine-protein kinase FLT3 (Homo sapiens, UniProt P36888); test: Inhibition of FLT3
# [3] = biological target: Ribosomal protein S6 kinase alpha-2 (Homo sapiens) (UniProt Q15349); test: Inhibition of RSK3 at 1 uM
# [4] = biological target: Ribosomal protein S6 kinase beta-1 (Homo sapiens) (UniProt P23443); test: Inhibition of P70S6K at 2 uM
# [5] = biological target: Protein kinase C eta type (Homo sapiens) (UniProt P24723); test: Inhibition of PKCeta at 1 uM
# [6] = Plasma concentration in mouse at 5 mg/kg, iv after 4 hrs; assay type: ADME, organism-based; parameters: dose 5 mg/kg, route intravenous
# [7] = biological target: Serine/threonine-protein kinase pim-2 (Homo sapiens) (UniProt Q9P1W9); test: Inhibition of PIM2 at 1 uM
# [8] = biological target: Dual specificity tyrosine-phosphorylation-regulated kinase 2 (Homo sapiens) (UniProt Q92630); test: Inhibition of DYRK2 at 1 uM
# [9] = biological target: Serine/threonine-protein kinase Chk1 (Homo sapiens) (UniProt O14757); test: Inhibition of CHK1 at 2 uM
# [10] = biological target: Tyrosine-protein kinase CSK (Homo sapiens) (UniProt P41240); test: Inhibition of CSK at 2 uM
# Sequence of Tyrosine-protein kinase CSK (Homo sapiens) (P41240 2-450 limits assumed): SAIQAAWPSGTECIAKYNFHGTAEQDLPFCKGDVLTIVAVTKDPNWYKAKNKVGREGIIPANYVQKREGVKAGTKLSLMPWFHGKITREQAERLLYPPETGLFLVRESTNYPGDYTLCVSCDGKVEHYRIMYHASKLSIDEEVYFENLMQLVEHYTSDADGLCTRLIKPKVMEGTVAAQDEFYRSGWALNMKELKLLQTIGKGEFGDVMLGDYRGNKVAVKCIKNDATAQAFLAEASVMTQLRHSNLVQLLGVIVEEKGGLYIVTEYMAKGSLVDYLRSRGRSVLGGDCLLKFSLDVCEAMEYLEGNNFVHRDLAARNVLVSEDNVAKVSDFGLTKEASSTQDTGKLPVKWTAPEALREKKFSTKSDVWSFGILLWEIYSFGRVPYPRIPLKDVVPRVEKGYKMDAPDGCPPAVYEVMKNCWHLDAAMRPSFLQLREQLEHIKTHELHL
# [11] = biological target: Tyrosine-protein kinase ITK/TSK (Homo sapiens, UniProt Q08881); test: Inhibition of ITK
# [12] = biological target: Mitogen-activated protein kinase 10 (Homo sapiens, UniProt P53779); test: Inhibition of JNK3
# [13] = Half life in mouse at 33 mg/kg, po; assay type: ADME, organism-based; parameters: dose 33 mg/kg, route oral; details: in vivo
# [14] = biological target: Tyrosine-protein kinase receptor TYRO3 (Homo sapiens) (UniProt Q06418); test: Inhibition of TYRO3 at 1 uM
# Sequence of Tyrosine-protein kinase receptor TYRO3 (Homo sapiens) (Q06418 whole entry): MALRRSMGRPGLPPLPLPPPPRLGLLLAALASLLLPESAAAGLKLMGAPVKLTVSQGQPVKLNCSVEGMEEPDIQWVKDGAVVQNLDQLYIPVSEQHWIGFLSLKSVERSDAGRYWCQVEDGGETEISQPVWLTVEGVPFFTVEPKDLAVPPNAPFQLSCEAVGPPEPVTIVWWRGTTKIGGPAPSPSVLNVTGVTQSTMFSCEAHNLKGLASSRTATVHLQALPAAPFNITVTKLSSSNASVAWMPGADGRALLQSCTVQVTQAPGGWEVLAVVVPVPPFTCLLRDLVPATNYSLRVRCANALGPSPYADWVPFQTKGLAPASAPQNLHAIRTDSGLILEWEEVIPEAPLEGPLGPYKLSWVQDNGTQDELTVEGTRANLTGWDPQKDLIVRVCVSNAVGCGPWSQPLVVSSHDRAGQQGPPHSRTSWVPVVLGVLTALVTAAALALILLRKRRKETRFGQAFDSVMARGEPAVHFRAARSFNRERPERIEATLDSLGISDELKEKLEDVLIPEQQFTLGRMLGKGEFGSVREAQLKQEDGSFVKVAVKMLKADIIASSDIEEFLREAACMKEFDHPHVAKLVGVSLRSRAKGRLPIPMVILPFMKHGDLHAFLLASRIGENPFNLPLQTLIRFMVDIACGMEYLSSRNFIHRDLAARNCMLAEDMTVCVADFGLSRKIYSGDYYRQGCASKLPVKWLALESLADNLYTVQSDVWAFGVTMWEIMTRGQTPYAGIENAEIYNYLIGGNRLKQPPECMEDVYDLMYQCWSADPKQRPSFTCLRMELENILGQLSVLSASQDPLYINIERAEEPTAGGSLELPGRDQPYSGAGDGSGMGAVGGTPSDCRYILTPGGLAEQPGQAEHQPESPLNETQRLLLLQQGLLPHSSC
# [15] = biological target: Mitogen-activated protein kinase kinase kinase 10 (Homo sapiens, UniProt Q02779); test: Inhibition of MLK2
# [16] = biological target: Dual specificity protein kinase CLK3 (Homo sapiens) (UniProt P49761); details: 1 uM
# Description: Inhibition of CLK3 at 1 uM
# [17] = biological target: Insulin receptor (Homo sapiens) (UniProt P06213); test: Inhibition of INSR at 1 uM
# [18] = biological target: Serine/threonine-protein kinase BRSK2 (Homo sapiens) (UniProt Q8IWQ3); test: Inhibition of BRSK2 at 1 uM
# [19] = biological target: Proto-oncogene tyrosine-protein kinase ROS (Homo sapiens) (UniProt P08922); test: Inhibition of ROS at 1 uM
# [20] = biological target: Mast/stem cell growth factor receptor Kit (Homo sapiens) (UniProt P10721); test: Inhibition of KIT at 1 uM
# [21] = Clearance in rat at 3 mg/kg, iv; assay type: ADME, organism-based; parameters: dose 3 mg/kg, route intravenous; details: in vivo
# [22] = biological target: Mitogen-activated protein kinase kinase kinase kinase 4 (Homo sapiens) (UniProt O95819); test: Inhibition of MAP4K4 at 1 uM
# [23] = biological target: Inhibitor of nuclear factor kappa-B kinase subunit epsilon (Homo sapiens, UniProt Q14164); test: Inhibition of IKKi
# [24] = biological target: Serine/threonine-protein kinase PAK 1 (Homo sapiens) (UniProt Q13153); test: Inhibition of PAK1 at 1 uM
# Sequence of Serine/threonine-protein kinase PAK 1 (Homo sapiens) (Q13153 whole entry): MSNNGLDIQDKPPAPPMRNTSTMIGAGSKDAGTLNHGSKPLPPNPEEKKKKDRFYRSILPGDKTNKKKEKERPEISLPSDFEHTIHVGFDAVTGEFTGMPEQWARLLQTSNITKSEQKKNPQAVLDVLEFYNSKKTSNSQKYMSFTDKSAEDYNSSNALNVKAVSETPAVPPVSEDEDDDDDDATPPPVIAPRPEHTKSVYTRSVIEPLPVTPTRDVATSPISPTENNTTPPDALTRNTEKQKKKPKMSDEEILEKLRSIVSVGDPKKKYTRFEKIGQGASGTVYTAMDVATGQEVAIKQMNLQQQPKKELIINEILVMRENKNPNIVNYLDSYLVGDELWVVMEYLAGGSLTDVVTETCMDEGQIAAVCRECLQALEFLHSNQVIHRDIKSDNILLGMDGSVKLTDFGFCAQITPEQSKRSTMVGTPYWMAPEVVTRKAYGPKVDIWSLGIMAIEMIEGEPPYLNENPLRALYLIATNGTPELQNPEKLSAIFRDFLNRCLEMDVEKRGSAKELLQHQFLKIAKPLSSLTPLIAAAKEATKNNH
# [25] = Plasma concentration in rat at 3 mg/kg, iv after 4 hrs; assay type: ADME, organism-based; parameters: dose 3 mg/kg, route intravenous
# [26] = biological target: RAC-gamma serine/threonine-protein kinase (Homo sapiens, UniProt Q9Y243); test: Inhibition of AKT3
# [27] = biological target: Tyrosine-protein kinase Fer (Homo sapiens) (UniProt P16591); test: Inhibition of FER at 1 uM
# [28] = biological target: Mitogen-activated protein kinase kinase kinase 7 (Homo sapiens, UniProt O43318); test: Inhibition of TAK1
# [29] = biological target: Tyrosine-protein kinase CSK (Homo sapiens) (UniProt P41240); test: Inhibition of CSK at 1 uM
# [30] = biological target: Tyrosine-protein kinase ABL1 (Homo sapiens) (UniProt P00519); test: Inhibition of ABL1 at 1 uM
# [31] = biological target: Serine/threonine-protein kinase Nek1 (Homo sapiens) (UniProt Q96PY6); test: Inhibition of NEK1 at 1 uM
# [32] = biological target: Serine/threonine-protein kinase DCLK2 (Homo sapiens) (UniProt Q8N568); test: Inhibition of DCAMKL2 at 1 uM
# [33] = biological target: Protein kinase C theta type (Homo sapiens) (UniProt Q04759); test: Inhibition of PKCtheta at 2 uM
# [34] = biological target: Misshapen-like kinase 1 (Homo sapiens) (UniProt Q8N4C8); test: Inhibition of MINK at 1 uM
# [35] = biological target: Protein kinase C beta type (Homo sapiens) (UniProt P05771); test: Inhibition of PKCbeta2 at 2 uM
# [36] = biological target: Cytoplasmic tyrosine-protein kinase BMX (Homo sapiens) (UniProt P51813); test: Inhibition of BMX at 1 uM
# [37] = biological target: Tyrosine-protein kinase HCK (Homo sapiens) (UniProt P08631); test: Inhibition of HCK at 1 uM
# [38] = Plasma concentration in mouse at 5 mg/kg, iv after 8 hrs; assay type: ADME, organism-based; parameters: dose 5 mg/kg, route intravenous
# [39] = biological target: Dual specificity mitogen-activated protein kinase kinase 7 (Homo sapiens) (UniProt O14733); test: Inhibition of MKK7 at 2 uM
# [40] = biological target: Tyrosine-protein kinase ZAP-70 (Homo sapiens, UniProt P43403); test: Inhibition of ZAP70
# Sequence of Tyrosine-protein kinase ZAP-70 (P43403 whole entry): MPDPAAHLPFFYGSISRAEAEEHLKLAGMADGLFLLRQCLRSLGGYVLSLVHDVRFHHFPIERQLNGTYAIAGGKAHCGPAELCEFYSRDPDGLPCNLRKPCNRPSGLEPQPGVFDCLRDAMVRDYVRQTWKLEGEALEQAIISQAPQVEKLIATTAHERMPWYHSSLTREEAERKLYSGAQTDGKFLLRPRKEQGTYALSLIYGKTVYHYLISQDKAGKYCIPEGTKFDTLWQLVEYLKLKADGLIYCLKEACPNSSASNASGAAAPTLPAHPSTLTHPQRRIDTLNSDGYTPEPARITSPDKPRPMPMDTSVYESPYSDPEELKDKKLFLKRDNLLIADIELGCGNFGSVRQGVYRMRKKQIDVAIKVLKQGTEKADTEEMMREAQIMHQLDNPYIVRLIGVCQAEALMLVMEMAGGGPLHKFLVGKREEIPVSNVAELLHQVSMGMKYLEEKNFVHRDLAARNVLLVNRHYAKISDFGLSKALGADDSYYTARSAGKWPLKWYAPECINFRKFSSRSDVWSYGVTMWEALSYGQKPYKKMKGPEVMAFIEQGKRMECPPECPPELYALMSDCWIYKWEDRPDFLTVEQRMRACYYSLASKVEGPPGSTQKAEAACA
# [41] = biological target: Vascular endothelial growth factor receptor 1 (Homo sapiens) (UniProt P17948); test: Inhibition of FLT-1 at 1 uM
# Sequence of Vascular endothelial growth factor receptor 1 (Homo sapiens) (P17948 whole entry): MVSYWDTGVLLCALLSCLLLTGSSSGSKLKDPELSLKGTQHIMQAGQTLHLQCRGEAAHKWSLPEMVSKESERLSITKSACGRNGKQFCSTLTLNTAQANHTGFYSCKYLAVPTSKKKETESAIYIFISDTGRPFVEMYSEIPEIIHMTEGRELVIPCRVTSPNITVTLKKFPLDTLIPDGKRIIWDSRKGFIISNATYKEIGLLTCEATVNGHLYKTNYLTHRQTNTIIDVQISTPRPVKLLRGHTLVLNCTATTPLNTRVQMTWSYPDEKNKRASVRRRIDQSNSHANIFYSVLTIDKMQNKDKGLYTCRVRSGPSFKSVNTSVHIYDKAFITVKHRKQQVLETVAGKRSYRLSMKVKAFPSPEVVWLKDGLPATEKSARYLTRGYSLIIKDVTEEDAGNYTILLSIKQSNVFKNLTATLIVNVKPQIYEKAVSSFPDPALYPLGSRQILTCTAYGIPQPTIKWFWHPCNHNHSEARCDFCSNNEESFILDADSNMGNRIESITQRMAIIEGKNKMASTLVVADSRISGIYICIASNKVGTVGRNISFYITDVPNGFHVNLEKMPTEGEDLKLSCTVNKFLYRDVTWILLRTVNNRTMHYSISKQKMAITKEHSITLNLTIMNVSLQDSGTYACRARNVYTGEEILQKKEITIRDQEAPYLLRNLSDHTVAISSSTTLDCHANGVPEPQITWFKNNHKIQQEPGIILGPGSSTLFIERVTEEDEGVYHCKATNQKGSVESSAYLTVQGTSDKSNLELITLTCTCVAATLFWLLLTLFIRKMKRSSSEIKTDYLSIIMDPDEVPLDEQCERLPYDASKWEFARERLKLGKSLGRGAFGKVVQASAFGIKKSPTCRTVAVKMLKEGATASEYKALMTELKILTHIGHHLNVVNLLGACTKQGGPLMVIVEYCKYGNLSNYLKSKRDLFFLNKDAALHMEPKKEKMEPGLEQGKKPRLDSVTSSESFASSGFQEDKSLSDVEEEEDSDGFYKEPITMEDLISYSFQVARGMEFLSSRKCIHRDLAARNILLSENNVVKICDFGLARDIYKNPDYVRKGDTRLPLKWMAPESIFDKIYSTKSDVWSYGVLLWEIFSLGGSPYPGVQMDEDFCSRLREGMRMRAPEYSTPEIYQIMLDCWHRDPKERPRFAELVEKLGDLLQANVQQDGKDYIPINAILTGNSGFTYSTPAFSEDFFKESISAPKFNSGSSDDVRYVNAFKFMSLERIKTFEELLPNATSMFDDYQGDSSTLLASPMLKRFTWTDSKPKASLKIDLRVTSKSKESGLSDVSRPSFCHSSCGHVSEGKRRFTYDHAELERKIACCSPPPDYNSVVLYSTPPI
# [42] = Plasma concentration in rat at 10 mg/kg, po after 8 hrs; assay type: ADME, organism-based; parameters: dose 10 mg/kg, route oral
# [43] = biological target: Ephrin type-B receptor 2 (Homo sapiens) (UniProt P29323); test: Inhibition of EPH-B2 at 1 uM
# [44] = biological target: Tyrosine-protein kinase Yes (Homo sapiens) (UniProt P07947); test: Inhibition of YES at 1 uM
# [45] = biological target: Protein kinase C gamma type (Homo sapiens) (UniProt P05129); test: Inhibition of PKCgamma at 2 uM
# [46] = biological target: RAC-beta serine/threonine-protein kinase (Homo sapiens) (UniProt P31751); test: Inhibition of AKT2 at 1 uM
# [47] = biological target: Protein kinase C alpha type (Homo sapiens) (UniProt P17252); test: Inhibition of PKCalpha at 2 uM
# [48] = biological target: Platelet-derived growth factor receptor alpha (Homo sapiens) (UniProt P16234); test: Inhibition of PDGFRalpha at 2 uM
# [49] = biological target: Mitogen-activated protein kinase kinase kinase 3 (Homo sapiens, UniProt Q99759); test: Inhibition of MEKK3
# [50] = biological target: Testis-specific serine/threonine-protein kinase 2 (Homo sapiens) (UniProt Q96PF2); test: Inhibition of TSSK2 at 1 uM
# [51] = biological target: cAMP-dependent protein kinase catalytic subunit PRKX (Homo sapiens) (UniProt P51817); test: Inhibition of PRKX at 1 uM
# Sequence of cAMP-dependent protein kinase catalytic subunit PRKX (Homo sapiens) (P51817 whole entry): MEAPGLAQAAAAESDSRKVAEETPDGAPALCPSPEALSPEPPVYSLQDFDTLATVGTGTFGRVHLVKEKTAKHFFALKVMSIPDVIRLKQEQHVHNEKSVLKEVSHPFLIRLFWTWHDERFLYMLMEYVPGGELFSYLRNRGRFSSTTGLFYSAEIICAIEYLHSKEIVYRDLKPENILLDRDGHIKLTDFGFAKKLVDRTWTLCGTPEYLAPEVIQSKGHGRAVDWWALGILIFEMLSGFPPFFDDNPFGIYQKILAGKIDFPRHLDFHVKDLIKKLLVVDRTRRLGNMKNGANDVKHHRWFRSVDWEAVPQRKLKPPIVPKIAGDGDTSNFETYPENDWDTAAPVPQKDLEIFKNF
# [52] = biological target: Tyrosine-protein kinase Fyn (Homo sapiens) (UniProt P06241); test: Inhibition of FYN at 2 uM
structure (smiles),measurement,setting,value
Cc1cnc(Nc2ccc(F)cc2Cl)nc1-c1c[nH]c(C(=O)N[C@H](CO)c2cccc(Cl)c2)c1,Ki,[1],1.4 µM
same,Ki,[2],1.4 µM
same,inhibition,[3],7%
same,inhibition,[4],18%
same,inhibition,[5],2%
same,concentration at 4 h,[6],79 ng/mL
same,inhibition,[7],3%
same,inhibition,[8],3%
same,inhibition,[9],40%
same,inhibition,[10],0%
same,Ki,[11],> 4 µM
same,Ki,[12],1.4 µM
same,half-life,[13],4.4 h
same,inhibition,[14],0%
same,Ki,[15],> 10 µM
same,inhibition,[16],9%
same,inhibition,[17],4%
same,inhibition,[18],2%
same,inhibition,[19],3%
same,inhibition,[20],8%
same,clearance,[21],24 mL/min/kg
same,inhibition,[22],18%
same,Ki,[23],> 5 µM
same,inhibition,[24],3%
same,concentration at 4 h,[25],123 ng/mL
same,Ki,[26],> 4 µM
same,inhibition,[27],3%
same,Ki,[28],3 µM
same,inhibition,[29],3%
same,inhibition,[30],3%
same,inhibition,[31],6%
same,inhibition,[32],1%
same,inhibition,[33],17%
same,inhibition,[34],18%
same,inhibition,[35],4%
same,inhibition,[36],3%
same,inhibition,[37],3%
same,concentration at 8 h,[38],17 ng/mL
same,inhibition,[39],6%
same,Ki,[40],> 4 µM
same,inhibition,[41],0%
same,concentration at 8 h,[42],267 ng/mL
same,inhibition,[43],0%
same,inhibition,[44],5%
same,inhibition,[45],11%
same,inhibition,[46],0%
same,inhibition,[47],12%
same,inhibition,[48],3%
same,Ki,[49],> 4 µM
same,inhibition,[50],3%
same,inhibition,[51],3%
same,inhibition,[52],11%
